Results taken from BigSolDB 2.1.

CS(=O)(=O)c1ccc(C=O)cc1
solubility (mole fraction)
Details	in acetic acid	in acetone	in acetonitrile	in ethanol	in isopropanol	in methanol	in n-butanol	in n-propanol	in toluene
283.15 K	0.00336	0.00798	0.00598	0.000869	0.000288	0.00206	0.000596	0.000541	0.000746
285.65 K	0.00368	0.00872	0.00661	0.000944	0.000321	0.0022	0.000652	0.000587	0.000825
288.15 K	0.00401	0.00937	0.00734	0.00103	0.000355	0.00242	0.000724	0.000659	0.000919
290.65 K	0.00445	0.0104	0.00814	0.00117	0.000405	0.00266	0.000828	0.000742	0.00103
293.15 K	0.00488	0.0114	0.00903	0.0013	0.000445	0.00295	0.000923	0.000835	0.00115
295.65 K	0.00539	0.0126	0.0101	0.00143	0.000502	0.00325	0.00102	0.000933	0.00128
298.15 K	0.00598	0.0136	0.0111	0.00158	0.00056	0.00358	0.00114	0.00105	0.00144
300.65 K	0.00662	0.0148	0.0123	0.00174	0.000629	0.00392	0.00128	0.00115	0.00161
303.15 K	0.00727	0.0161	0.0137	0.00192	0.000703	0.00431	0.0014	0.00126	0.0018
305.65 K	0.00811	0.0174	0.0152	0.00212	0.000796	0.00471	0.00155	0.00141	0.002
308.15 K	0.00895	0.0189	0.017	0.00235	0.000894	0.00518	0.00171	0.00157	0.00224
310.65 K	0.00984	0.0206	0.019	0.00258	0.00101	0.00572	0.00191	0.00176	0.0025
313.15 K	0.0108	0.0226	0.021	0.00284	0.00112	0.00623	0.00211	0.00194	0.00276
315.65 K	0.0118	0.0245	0.023	0.00311	0.00125	0.00678	0.00232	0.00216	0.00308
318.15 K	0.0129	0.0269	0.0252	0.00341	0.00139	0.00739	0.0026	0.00241	0.0034
